In US8486900B2, “Method for preparing a Centella asiatica extract rich in madecassoside and in terminoloside” (Bayer Consumer Care AG, priority 2002, dated 2013):
Where “and” joins values, the source holds several entries; their conditions need not be identical. Equal values may be shown once.

Tests used:
[1] = Solubility
[2] = system: TIMP-1; assay: Production of TIMP-1 by human fibroblasts in collagen gel stimulated with TNF-α; type: cell-based; details: for Production of TIMP-1, (+) TNF-α, mean: TNF-α 10 ng/ml
Experimental: (§1) An in vitro experimental approach based on measuring the amounts of MMP-1 and of TIMP-1 released into the culture media by human fibroblasts cultured in the absence and in the presence of the products, and stimulated with TNF-α, is proposed. The study was carried out on human fibroblast cultures established from skin biopsies according to the explant method. The fibroblasts are cultured, according to the techniques used in the laboratory, in DMEM medium (sold under the name Invitrogen™ by the company Life Technologies) supplemented with fetal calf serum (10% FCS) and with antibiotics, at […] in a humid air-CO2 (95%-5%) atmosphere.
(§2) After incubation, the plates are emptied. The cultures are rinsed and then exposed to a solution of TNF-α (10 ng/ml) in the absence (control cultures) or in the presence (treated cultures) of the various concentrations of each product being studied. After the addition of TNF-α, the cultures are returned to the incubator at 37° C. for 24 h. At the end of incubation, the media are removed, centrifuged and aliquoted for assaying of MMP-1 and of TIMP-1.
The amount of TIMP-1, an inhibitor specific for MMP-1, was also measured in the supernatants of the cultures treated with asiaticoside or the madecassoside-terminoloside mixture.

[3] = system: MMP-1; assay: TNF-α-induced production of MMP-1 by human fibroblasts in collagen gel (dermis equivalent); type: cell-based; details: for Production of MMP-1, (+) TNF-α, mean: TNF-α 10 ng/ml, 24 h pretreatment + 24 h; for decrease in the amount of MMP-1: relative to (+)TNF-α control
Experimental: as §1
Human dermal fibroblasts cultured as a monolayer are detached from their support by trypsinization and suspended in complete medium. After counting, the cell suspension is diluted in culture medium and added, in defined proportions, to a mixture of concentrated culture medium (1.76×DMEM), fetal calf serum (FCS) and type I collagen (acetic acid extract from rat tail tendons). The mixture is then poured, under cold conditions, into 24-well plates in a proportion of 1 ml/well. The dermous equivalents are then placed at 37° C. and incubated for 72 h, in an air-CO2 (95%/5%) atmosphere. The gels gradually contract under the action of the fibroblasts.
72 hours after seeding, the culture medium is removed and replaced with new medium containing the various products being studied (“preventative” treatment). The gels are returned to the incubator at 37° C. and incubated, for 24 hours, in an air-CO2 (95%/5%) atmosphere.
as §2
(§3) The study was carried out on human fibroblasts cultured in a three-dimensional gel of collagen (dermous equivalent).
1. Treatment of cells for 24 h, before induction of MMP-1 with TNF-α.
2. Induction of MMP-1 by the addition of TNF-α (10 ng/ml). Incubation for 24 h.
(§4) 3. Measurement of cell viability and of the amounts of MMP-1 in the control and treated culture supernatants.

[4] = system: human fibroblasts cultured in a three-dimensional gel of collagen; assay: Cell viability (Neutral Red assay) of collagen gel fibroblast cultures after TNF-α; type: cell-based; details: TNF-α 10 ng/ml, 0.2-1.0 mg/ml
Experimental: as §3, §4
Cell Viability (Neutral Red Assay)

[5] = system: human fibroblasts; assay: Cytotoxicity, Neutral Red assay on human fibroblasts; details: for Viability (24 h) / Viability (48 h): DMSO 1%
Experimental: A stock solution of the product was prepared beforehand in DMSO and then diluted in culture medium in order to obtain the various test solutions (final concentration of DMSO: 1%). A broad range of 8 concentrations [from 5 to 1000 μg/ml] was initially studied in order to close in the maximum NonCytotoxic Dose (NCD).
A stock solution of the product was prepared beforehand in DMSO and then diluted in culture medium in order to obtain the various test solutions (final concentration of the DMSO: 1%). A broad range of 8 concentrations (between […]) was studied on human fibroblasts in order to close in the maximum NonCytotoxic Dose (NCD).

[6] = system: NFκB; assay: TNF-α-induced activation of NFκB in nuclei of normal human fibroblasts; type: cell-based; details: for NFκB (AU), mean / NFκB (AU), single values / NFκB, % control: TNF-α 25 ng/ml; for NFκB, % control: control with TNF-α = 100
Experimental: This study makes it possible to evaluate the effects of the mixture according to the invention on the activation of NFκB, using a very sensitive specific method based on measuring the binding of the transcription factor NFκB to the consensus oligonucleotide sequence immobilized on a plastic support. Bound NFκB is secondarily recognized by a specific anti-NFκB antibody. This assay was carried out on isolated nuclei of normal human fibroblasts. The culture medium is DMEM, which comprises: • 2 mM L-glutamine • 50 IU/ml penicillin, 50 μg/ml streptomycin • 10% (v/v) fetal calf serum for the preculture and then a switch to serum-free medium The fibroblasts were precultured in 175 cm^2 flasks in DMEM medium containing 10 vol % of FCS until confluency, and the culture medium was then replaced with serum-free DMEM medium. The cells were then cultured in the presence of the products to be assayed or of references, for 1 hour. The proinflammatory agent […] (TNF-α, at 25 ng/ml final concentration; Sigma T0157) was then added to the culture medium and the cells were again incubated for 1 hour at 37° C. and 5% CO2. After incubation, the cells were harvested on ice and the cell nuclei of the various samples were isolated using the Sigma NUC-101 kit according to the protocol recommended by the supplier. The amount of proteins of each nuclear extract was determined using the Biorad 500-0116 assay kit. The amount of activated NFκB bound to the specific oligonucleotide was measured on the same amount of nuclear extract of each sample, i.e. 50 μl, diluted 50/50, after visualization using a specific anti-NFκB antibody. […] AU represents the arbitrary units of NFκB in the extract; this is the difference between the measured value and the background noise.

[7] = system: IL-8; assay: Effect of interferon-γ on production and release of IL-8 by normal human keratinocytes; type: cell-based
Experimental: (§5) The study is carried out on normal human keratinocytes. The cells are first treated with 4 concentrations of interferon-gamma (IFN-γ), for 24 hours.
(§6) Next, the inflammation mediators are measured in the control cultures and cultures treated with IFN-γ, by assaying IL-8 and TNF-α in the culture supernatants and by assaying cell proteins. The method of measurement used is the Coomassie blue test; it is a standardized method.
(§7) The effects of interferon-gamma (IFN-γ) on the production and release of epidermal cytokines was studied on normal human keratinocytes (strain K02-1H4). 4 concentrations of IFN-g were tested:
The effects of IFN-γ on the production and release of IL-8 were studied under the same experimental conditions.

[8] = system: TNF-α; assay: Effect of interferon-γ on production of TNF-α by normal human keratinocytes; type: cell-based; details: for TNF-α, mean: normal human keratinocytes, 24 h
Experimental: as §5, §6

[9] = system: PGE-2; assay: Effect of interferon-γ on release of PGE-2 by normal human keratinocytes; type: cell-based
Experimental: as §7
The effects of IFN-γ on the production and release of PGE-2 was studied under the same experimental conditions as previously described (Table 31).

[10] = system: IL-1α; assay: Effect of interferon-γ on intracellular IL-1α production by normal human keratinocytes; type: cell-based; design: multiplication of the basal amount of IL-1α: dose or concentration left out as unconfirmed
Excerpt: The effects of interferon-gamma (IFN-γ) on the production and release of epidermal cytokines was studied on normal human keratinocytes (strain K02-1H4).

[11] = Immunomodulatory activity
[12] = K02-1H4, interferon-γ 1000 U/ml
[13] = K02-1H4, interferon-γ 2000 U/ml

Compound: C[C@H]1[C@H](C)CC[C@]2(C(=O)O[C@@H]3O[C@H](CO[C@@H]4O[C@H](CO)[C@@H](O[C@@H]5O[C@H](C)[C@H](O)[C@@H](O)[C@H]5O)[C@H](O)[C@H]4O)[C@@H](O)[C@H](O)[C@H]3O)CC[C@]3(C)C(=CC[C@@H]4[C@@]5(C)C[C@@H](O)[C@H](O)[C@@](C)(CO)[C@@H]5CC[C@]43C)[C@H]12 [Asiaticoside, asiaticoside]
- solubility [1]: organosoluble
- Production of TIMP-1, (+) TNF-α, mean ([2]; 0.2 mg/ml): 51.01 ng TIMP-1/ml
- Production of TIMP-1, (+) TNF-α, mean ([2]; 0.5 mg/ml): 50.36 ng TIMP-1/ml
- Production of TIMP-1, (+) TNF-α, mean ([2]; 1.0 mg/ml): 48.82 ng TIMP-1/ml
- effect with respect to the production of TIMP-1 ([2]; within the range of concentrations tested (0.2-1.0 mg/ml)): no effect
- Production of MMP-1, (+) TNF-α, mean ([3]; 0.2 mg/ml): 9.96 ng MMP-1/ml
- Production of MMP-1, (+) TNF-α, mean ([3]; 0.5 mg/ml): 6.18 ng MMP-1/ml
- Production of MMP-1, (+) TNF-α, mean ([3]; 1.0 mg/ml): 3.40 ng MMP-1/ml
- decrease in the amount of MMP-1 ([3]; C1 = 0.2 mg/ml): 18%
- decrease in the amount of MMP-1 ([3]; C2 = 0.5 mg/ml): 49%
- decrease in the amount of MMP-1 ([3]; C3 = 1.0 mg/ml): 72%
- viability of the treated cultures after treatment with TNF-α [4]: not modified
- Maximum NonCytotoxic Dose (NCD) [5]: 1 mg/mL
- decrease of cell viability ([5]; 48 h, 1 mg/ml): 12%
- Viability (24 h) [5]; 10: 98%
- Viability (24 h) [5]; 25: 101%
- Viability (24 h) [5]; 50: 101%
- Viability (24 h) [5]; 100: 101%
- Viability (24 h) [5]; 250: 101%
- Viability (24 h) [5]; 500: 97%
- Viability (24 h) [5]; 1000: 93%
- Viability (48 h) ([5]; 48 h, 10): 108%
- Viability (48 h) ([5]; 48 h, 25): 107%
- Viability (48 h) ([5]; 48 h, 50): 106%
- Viability (48 h) ([5]; 48 h, 75): 104%
- Viability (48 h) ([5]; 48 h, 100): 102%
- Viability (48 h) ([5]; 48 h, 250): 99%
- Viability (48 h) ([5]; 48 h, 500): 93%
- Viability (48 h) ([5]; 48 h, 750): 90%
- Viability (48 h) ([5]; 48 h, 1000): 88%
- cytotoxic effect ([5]; contact for 24 h, 5 to 1000 μg/ml): no significant cytotoxic effect
- nontoxic concentrations ([5]; incubation for 48 h): below 1 mg/ml

Compound: C[C@@H]1C[C@H]2[C@@H]3CCC4=CC(=O)C=C[C@]4(C)[C@@]3(F)[C@@H](O)C[C@]2(C)[C@@]1(O)C(=O)CO [dexamethasone, Dexamethasone]
- nuclear translocation of NFκB induced by TNF-α ([6]; 0.1 μM): did not inhibit
- NFκB (AU), mean ([6]; 0.1 μM dexamethasone): 9.46 AU
- NFκB (AU), single values ([6]; 0.1 μM dexamethasone): 10.94 AU and 7.3 AU and 9.90 AU and 9.67 AU
- NFκB, % control ([6]; 0.1 μM dexamethasone): 99%

Compound: O=C(O)c1cc(/N=N/c2ccc(S(=O)(=O)Nc3ccccn3)cc2)ccc1O [sulfasalazine, Sulfasalazine]
- NFκB (AU), mean ([6]; 5 mM sulfasalazine): 4.19 AU
- NFκB (AU), single values ([6]; 5 mM sulfasalazine): 4.93 AU and 4.01 AU and 2.88 AU
- NFκB, % control ([6]; 5 mM sulfasalazine): 44%

Compound: Interferon-γ: interferon-gamma used as irritative agent to stimulate keratinocytes
- multiplication of the basal amount of IL-8 ([7]; Example 8, interferon 1000 U/ml): 26 fold
- multiplication of the basal amount of IL-8 ([7]; Example 8, interferon 2000 U/ml): 38 fold
- IL-8, mean ([7]; Example 8, normal human keratinocytes, 24 h, interferon-γ 100 U/ml): 0.980 pg/μg proteins
- IL-8, mean ([7]; Example 8, normal human keratinocytes, 24 h, interferon-γ 500 U/ml): 1.301 pg/μg proteins
- IL-8, mean ([7]; Example 8, normal human keratinocytes, 24 h, interferon-γ 1000 U/ml): 1.991 pg/μg proteins
- IL-8, mean ([7]; Example 8, normal human keratinocytes, 24 h, interferon-γ 2000 U/ml): 2.917 pg/μg proteins
- IL-8, mean ([7]; Example 12, K02-1H4, interferon-γ 100 U/ml): 0.252 pg/μg proteins
- IL-8, mean ([7]; Example 12, K02-1H4, interferon-γ 500 U/ml): 0.350 pg/μg proteins
- IL-8, mean ([7]; Example 12, K02-1H4, interferon-γ 1000 U/ml): 0.516 pg/μg proteins
- IL-8, mean ([7]; Example 12, K02-1H4, interferon-γ 2000 U/ml): 0.671 pg/μg proteins
- multiplication of the basal amount of TNF-α ([8]; interferon 1000 U/ml): 3.3 fold
- multiplication of the basal amount of TNF-α ([8]; interferon 2000 U/ml): 4.5 fold
- TNF-α, mean ([8]; interferon-γ 100 U/ml): 3.198 pg/μg proteins
- TNF-α, mean ([8]; interferon-γ 500 U/ml): 8.605 pg/μg proteins
- TNF-α, mean ([8]; interferon-γ 1000 U/ml): 10.773 pg/μg proteins
- TNF-α, mean ([8]; interferon-γ 2000 U/ml): 14.545 pg/μg proteins
- stimulation of the production and release of PGE-2 ([9]; 100 to 2000 U/ml): not capable of stimulating
- Extracellular PGE-2, mean ([9]; K02-1H4, interferon-γ 100 U/ml): 3.60 pg/μg proteins
- Extracellular PGE-2, mean ([9]; K02-1H4, interferon-γ 500 U/ml): 3.45 pg/μg proteins
- Extracellular PGE-2, mean [9, 12]: 3.48 pg/μg proteins
- Extracellular PGE-2, mean [9, 13]: 3.80 pg/μg proteins
- multiplication of the basal amount of IL-1α ([10]; IFN-γ 1000): 2.6 fold
- multiplication of the basal amount of IL-1α ([10]; IFN-γ 2000): 3.8 fold
- IL-1α (intracellular), mean ([10]; K02-1H4, interferon-γ 100 U/ml): 6.80 pg/μg proteins
- IL-1α (intracellular), mean ([10]; K02-1H4, interferon-γ 500 U/ml): 8.29 pg/μg proteins
- IL-1α (intracellular), mean [10, 12]: 11.21 pg/μg proteins
- IL-1α (intracellular), mean [10, 13]: 12.48 pg/μg proteins

Compound: terminolic acid
- immunomodulatory activity [11]: no immunomodulatory activity
